Legend:
[1] = target: T1, full-length hPPARγ (Homo sapiens, UniProt P37231); test: PPARγ-activated luciferase reporter (transactivation) assay in Cos-7 cells; assay type: cell-based; conditions: at 33 μM and 100 μM
T1 construct: 50 ng of full-length hPPARγ plasmids; expressed in transfected cells; host or cells: Cos-7 cells (ATCC)
T1 sequence (P37231 1-505): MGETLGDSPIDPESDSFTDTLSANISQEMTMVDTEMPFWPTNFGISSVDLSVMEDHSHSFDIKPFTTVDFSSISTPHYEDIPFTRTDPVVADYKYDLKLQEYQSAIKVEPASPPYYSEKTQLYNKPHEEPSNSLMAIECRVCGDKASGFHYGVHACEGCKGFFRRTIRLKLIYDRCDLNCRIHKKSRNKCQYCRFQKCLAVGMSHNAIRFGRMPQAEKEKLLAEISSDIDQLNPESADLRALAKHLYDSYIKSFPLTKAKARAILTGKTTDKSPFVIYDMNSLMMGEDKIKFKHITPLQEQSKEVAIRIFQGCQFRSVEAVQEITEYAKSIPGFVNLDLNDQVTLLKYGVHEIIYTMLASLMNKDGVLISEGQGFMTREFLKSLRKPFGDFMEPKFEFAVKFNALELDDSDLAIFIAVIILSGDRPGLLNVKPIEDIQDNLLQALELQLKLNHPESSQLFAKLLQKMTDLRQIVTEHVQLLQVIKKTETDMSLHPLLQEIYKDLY
Description: Fig. 3 Luciferase reporter assay of PPARγ activation in Cos-7 cells. The luciferase activity was normalized against renilla luciferase units. Fold activation was calculated against DMSO with no ligand treatment. […] Concentration is represented as log10 scale (n = 3, error bars = SEM). […]
and 25 mM of imidazole) per 6 liters of cells, and passed three times through a French press with pressure set at […]. The lysate was cleared by centrifugation at 48,000 x g for 30 minutes and the supernatant was purified by loading on 2x5 mL HiLoad Nickel HP columns (GE Healthcare). The 6×His SUMO tag was removed by cleavage with the Sumo protease Ulp1 at a protease: protein ratio of 1:1000), and the tag was separated from the PPARγ LBD by a second pass through the Nickel column. PPARγ monomer was further purified by gel filtration (HiLoad 26/60 Superdex 200 (GE Healthcare)) with 20 mM of Tris (pH 8.0), 100 mM of NaCl, and 5 mM of DTT as buffer. The PPARγ LBD protein was complexed with PGC1α1 peptide […]
([…]) at a 1:1.2 molar ratio and with compound at a 1:5 molar ratio and then filter-concentrated to 10 mg/mL.
Cell-based transactivation assay […]
Excitation of the terbium at 340 nm results in FRET to the fluorescent tracer, with emissions detected at 520 nm and 495 nm. […]
The inhibition constant (ki) for a competitor was calculated by applying the […]

[2] = target: T2, GST-PPARγ LBD (Homo sapiens, UniProt P37231); test: LanthaScreen TR-FRET competitive binding assay, PPARγ
T2 construct: 0.5 nM GST-PPARγ LBD was incubated with 5 nM Fluormone™; purchased Invitrogen
T2 sequence (P37231 238-503 limits assumed): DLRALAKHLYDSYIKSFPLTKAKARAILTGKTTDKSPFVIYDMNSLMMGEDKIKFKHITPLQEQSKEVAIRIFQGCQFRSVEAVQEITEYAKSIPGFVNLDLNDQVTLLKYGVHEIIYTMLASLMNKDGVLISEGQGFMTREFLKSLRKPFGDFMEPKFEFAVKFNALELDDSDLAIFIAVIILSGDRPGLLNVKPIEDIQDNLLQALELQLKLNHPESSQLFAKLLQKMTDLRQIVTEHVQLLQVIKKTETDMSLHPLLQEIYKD
Description: LanthaScreen™ TR-FRET assay (Invitrogen) was used for measuring the binding affinities of the ligands. 0.5 nM GST-PPARγ LBD was incubated with 5 nM Fluormone™ and Terbium-coated GST antibody.
Competitive TR -FRET binding assay
The GST PPARγ -LBD was labeled with a terbium-linked antibody and a fluorescent small molecule pan-PPAR ligand (Fluormone™ Pan-PPAR Green, Invitrogen) was used as a tracer that is displaced from the ligand binding domain upon agonist binding.
Tracer displacment results is a loss of FRET signal between the terbium label and the fluorescent tracer.
Cheng-Prusoff equation as following:
the tracer, [tracer] is the concentration of Fluormone™ Pan-PPAR Green used in the
(average±standard deviation calculated from three separate experiments).

[3] = test system: 3T3-L1 cells; test: 3T3-L1 adipocyte differentiation assay (Oil Red O staining); assay type: cell-based, mouse
Description: One of the best documented side-effects of the PPARγ agonist drugs is weight gain as PPARγ is the key activator of adipogenesis. To determine whether VSP-77 promotes adipogenesis, we treated mouse fibroblast 3T3-L1 cells with 100 μM of VSP-77. […] Cells were incubated with Oil Red O, which stains adipocytes red.
Fig. 6 3T3-L1 adipocyte differentiation assay. Oil Red O staining of 3T3-L1 fibroblast cells after differentiating with different ligands for 2 days. […]
Adipocyte differentiation assay
The adipocyte differentiation assay was performed with NIH 3T3-L1 preadipocytes obtained from ATCC. The 3T3-L1 preadipocytes were maintained in DMEM containing 10% FBS and antibiotics. For differentiation DMI (Dexamethazone 1 μM, 3-isobutyl-1-methyxanthine (IBMX) 0.5 mM and Insulin167 nM) and 10 μM of rosiglitazone were used as positive controls for the assay. VSP-77 was used at a 100 μM concentration. All the treatments have insulin at 167 nM concentration. Media with DMSO was used as a negative control. Differentiation was induced by treating post-confluent cultures with media containing the respective ligands for two days.
Cells were stained with Oil Red O to estimate the lipid accumulation. The images were analyzed using ImageJ (National Institutes of Health). […]

[4] = test system: HFD mice; test: Anti-diabetic activity in high-fat diet (HFD) mice, 10 days; assay type: in vivo, C57BL/6J mice

## CCCCCCCC(OCC(=O)O)c1ccc(Cl)cc1 (stereo not drawn) [VSP-77]
[1]
  agonistic activity (fold activation of luciferase reporter): weakly agonistic
[2]; at 10 μM
  binding to PPARγ (in words): potent binding affinity
[2]; competition of Fluormone (5 nM), 0.5 nM GST-PPARγ LBD
  Ki: 4.8 µM
[2]; higher than DA
  binding affinity for PPARγ relative to DA: about 10 fold
[3]; 100 μM
  adipogenesis (in words): does not activate adipogenesis
[3]; VSP-77 100 μM
  total number of adipocytes when added to DMI- or Rosi-treated cells: clear decrease
[3]; VSP-77 100 μM, 2 days
  % Area stained by Oil Red O: 0%
[4]
  expression of key adipogenesis-related genes in adipose tissue: does not induce
[4]; 5 mg/kg i.p.
  Cdk5-mediated phosphorylation of PPARγ at Ser-273 in adipose tissue: decrease
  body weight and food intake compared to vehicle-treated mice: without significant differences
  expression of glut4 and adiponectin in adipose tissue: selectively induced
  fasting insulin levels: significant reduction
  glucose levels: lowered
  insulin resistance (HOMA-IR): clear and dose-dependent improvement
  organ / fat weight: selectively decreased subcutaneous and perirenal fats

From paper PMC7059199, “Identification and structural insight of an effective PPARγ modulator with improved therapeutic index for anti-diabetic drug discovery” (Chemical Science, 2020)
